Reference: paper PMC6884575, “Suppression of FOXM1 activities and breast cancer growth in vitro and in vivo by a new class of compounds” (NPJ Breast Cancer, 2019)

Tests used:
FOXM1 = target: T1, FOXM1 (Homo sapiens, UniProt Q08050); test: tr-FRET competitive binding assay with Fl-NB-72 probe; design: we attached a terbium donor to purified, full length FOXM1 through a streptavidin-biotin linker; conditions: calculated from IC50 values; Supplementary Table 1; read-out: Ki, affinity for binding to FOXM1 protein
T1 sequence (Q08050 1-763): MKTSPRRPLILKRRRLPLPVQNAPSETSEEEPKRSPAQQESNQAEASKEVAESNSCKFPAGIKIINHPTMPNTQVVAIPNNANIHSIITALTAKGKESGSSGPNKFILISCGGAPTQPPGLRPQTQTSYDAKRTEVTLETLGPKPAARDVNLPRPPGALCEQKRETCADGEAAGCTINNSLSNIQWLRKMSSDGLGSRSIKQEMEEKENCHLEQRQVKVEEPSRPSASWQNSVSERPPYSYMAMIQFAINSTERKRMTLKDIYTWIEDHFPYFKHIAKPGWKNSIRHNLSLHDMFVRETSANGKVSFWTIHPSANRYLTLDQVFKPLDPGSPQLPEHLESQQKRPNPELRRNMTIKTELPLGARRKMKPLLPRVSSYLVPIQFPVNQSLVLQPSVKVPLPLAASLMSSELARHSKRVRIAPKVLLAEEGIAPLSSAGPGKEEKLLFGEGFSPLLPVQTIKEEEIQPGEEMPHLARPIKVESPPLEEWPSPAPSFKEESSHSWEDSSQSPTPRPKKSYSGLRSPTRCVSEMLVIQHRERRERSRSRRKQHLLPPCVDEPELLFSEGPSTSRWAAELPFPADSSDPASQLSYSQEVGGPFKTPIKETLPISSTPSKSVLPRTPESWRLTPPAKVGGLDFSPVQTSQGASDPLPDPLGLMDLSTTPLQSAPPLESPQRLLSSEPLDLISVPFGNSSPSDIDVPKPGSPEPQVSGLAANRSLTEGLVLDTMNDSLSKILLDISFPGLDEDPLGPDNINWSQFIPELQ
Procedure: Competitive binding assays of compound binding to FOXM1 by tr-FRET were done in FRET buffer (20 mM Tris, pH 7.5, 50 mM NaCl, 0.01% NP-40 detergent, 10% glycerol) with 0.3 mg/ml ovalbumin and 0.1 mM butylated hydroxy-anisole added fresh daily. Solutions of the protein, fluorescent probe and compound dilutions were prepared at 3× concentrations, the final dilution taking place as they were mixed together in equal portions on the microtiter plate.
Final concentrations were 10^−5 M to 10^−9 M, with the last point being buffer only, no compound. Fluorescein-NB-72 (Fl-NB- 72) was prepared at 1 mM in DMF and stored at −20 °C. It was diluted into FRET buffer to give 100 nM in the assay. Incubations were done in duplicate on black Molecular Devices 96-well microtiter plates. 5 μl of Fl-NB-72 and 5 μl of the compound dilutions, were mixed together on the plate. To this was added 5 µl biotin-FoxM1 and incubated in the dark at room temperature, for 1 h. […] To correct for background signals, biotin-FOXM1 was omitted, and diffusion-enhanced FRET incubations were done in duplicate on black Molecular Devices 96-well microtiter plates. Five microliter of Fl-NB-72 and 5 μl of the compound solutions were mixed together and then 5 µl of FRET buffer plus SaTb was added, mixed and incubated in the dark at room temperature, for 1 h. The tr-FRET signals measured as above were subtracted as a background from the first incubations that contained biotin-FOXM1. Graphs were prepared using Graph Pad/Prism 4.

[1] = Pharmacokinetics in mice after single s.c. or oral dose; assay type: in vivo, female CD1 mice; conditions: for AUC / Cmax / half-life: female, CD1, mouse, single dose, plasma
Procedure: The pharmacokinetics of compounds were monitored after single dose administration into female CD1 mice (7–9 weeks of age) via s.c. injection or oral gavage, as described.[39] For s.c. injection, each compound was dissolved in DMSO and then mixed with corn oil for a total injection volume of 100 μL (10% DSMO + 90% corn oil) per mouse. For oral gavage, compounds were administered in a 200 µL formulation of 9/0.5/0.5/90 parts of PEG400/Tween80/Povidone/0.5% Carboxymethylcellulose in DI water. […] Compounds were quantified by LC-MS/MS at the University of Illinois Metabolomics Core Facility. The data were fitted to a non-compartment model.

[2] = system: FOXM1 target gene expression in MCF7 cells; test: FOXM1 target gene expression by qRT-PCR; assay type: cell-based, human; conditions: MCF7, 24 h, compound at its IC50 for proliferation
Procedure: Total RNA was isolated using TRIzol (Invitrogen) and reverse transcribed using […] reverse transcriptase (New England BioLabs). Real-time PCR was performed using SYBRgreen PCR Master Mix (Quantabio) as described.[15] Relative mRNA levels of genes were normalized to the housekeeping gene 36B4, and fold-change calculated relative to the vehicle treated samples. Results are the average ± SD from at least two independent experiments carried out in triplicate. Primer sequences for the genes studied were obtained from the Harvard Primer Bank. Sequences are available on their website.

[3] = system: DT22 breast tumor xenografts; test: DT22 human breast tumor xenograft growth in NSG mice; assay type: in vivo; conditions: for tumor growth in vivo: low doses (2–20 mg/kg) s.c. daily or every other day; for animal body weight / growth of tumor xenografts: low doses s.c.: NB-115 2 or 6 mg/kg daily, NB-63 20 mg/kg daily then 10 mg/kg every other day from day 20; for tumor growth: DT22 tumors, NSG mice, s.c., 20 mg/kg every other day for 10 days then 10 mg/kg every other day
Procedure: For examination of the effects of compounds on breast tumor growth suppression, intact female NOD/SCID-gamma (NSG) mice were used as detailed previously.[39] DT-22 breast cancer cells (1 × 10^6 cells/mouse) were injected s.c. into the right axial mammary gland. Mice received s.c. injection or oral gavage daily or every second or third day as indicated, with vehicle or treatment compound, and tumor volume (length × width^2/2) was monitored over time.

[4] = system: tamoxifen-resistant MCF7 breast cancer cells; test: Proliferation of tamoxifen-resistant MCF7 cells; assay type: cell-based, human; conditions: 6 days, cell numbers
Procedure: resistant MCF7 cells. Cells were treated with NB-73 or trans-hydroxytamoxifen (OH-
Tam) for 6 days and cell numbers were monitored. Values are mean ± SD of three
(1 picture or pasted object on this page, not shown here)

[5] = system: DT22 cells and MCF7 cells; test: Cell proliferation in DT22 and MCF7 cells; assay type: cell-based, human; conditions: 3 days
Procedure: WST-1 assay (Roche, Basel, Switzerland) was used to quantify cell viability as described.[38] […] All assays were performed in triplicate and analyzed using Graph Pad Prism 8.0.

CCN(CC)CCCCCCOc1ccc(C(c2ccc(OCCCCCCN(CC)CC)cc2)=C2[C@H]3C[C@@H]4C[C@@H](C[C@H]2C4)C3)cc1 [NB-51]
Ki (FOXM1): 130 nM
AUC ([1]; oral, 40 mg/kg): 1.81 µM·h
Cmax ([1]; oral, 40 mg/kg): 110 nM
half-life ([1]; oral, 40 mg/kg): 20.1 h
AUC ([1]; sc, 20 mg/kg): 4.73 µM·h
Cmax ([1]; sc, 20 mg/kg): 180 nM
half-life ([1]; sc, 20 mg/kg): 61.8 h

c1cc(C(c2ccc(OCCCCCCN3CCCCC3)cc2)=C2[C@H]3C[C@@H]4C[C@@H](C[C@H]2C4)C3)ccc1OCCCCCCN1CCCCC1 [NB-70]
AUC ([1]; oral, 60 mg/kg): 8.32 µM·h
Cmax ([1]; oral, 60 mg/kg): 220 nM
half-life ([1]; oral, 60 mg/kg): 51.2 h
AUC ([1]; sc, 60 mg/kg): 10.2 µM·h
Cmax ([1]; sc, 60 mg/kg): 270 nM
half-life ([1]; sc, 60 mg/kg): 222 h

CC[N+](C)(CC)CCCCCCOc1ccc(C(=C2C3CC4CC(C3)CC2C4)c2ccc(OCCCCCC[N+](C)(CC)CC)cc2)cc1 [NB-115]
expression of ATF3, a gene suppressed by FOXM1 [2]: increased expression of ATF3
expression of FOXM1 stimulated target genes (FOXM1C, AURKB, CCNB1, PLK1) [2]: significantly reduced the expression
tumor growth in vivo [3]: greatly suppress tumor growth
animal body weight [3]: little impact on animal body weight
growth of tumor xenografts [3]: effective in suppressing the growth of tumor xenografts
Cmax ([1]; oral, 40 mg/kg): 100 nM
AUC ([1]; sc, 40 mg/kg): 746 µM·h
Cmax ([1]; sc, 40 mg/kg): 34700 nM
half-life ([1]; sc, 40 mg/kg): 38.6 h

C[N+]1(CCCCCCOc2ccc(C(=C3C4CC5CC(C4)CC3C5)c3ccc(OCCCCCC[N+]4(C)CCCCC4)cc3)cc2)CCCCC1 [NB-71]
tumor growth [3]: greatly suppress tumor growth
tumor growth in vivo [3]: greatly suppress tumor growth
blood levels of compound ([1]; after oral administration): only very low levels
blood levels of compound ([1]; after s.c. injection): very high blood levels
AUC ([1]; oral, 60 mg/kg): 0.08 µM·h
Cmax ([1]; oral, 60 mg/kg): 30 nM
AUC ([1]; sc, 60 mg/kg): 198 µM·h
Cmax ([1]; sc, 60 mg/kg): 9520 nM
half-life ([1]; sc, 60 mg/kg): 33.2 h

CC/C(=C(\c1ccc(O)cc1)c1ccc(OCCN(C)C)cc1)c1ccccc1 [trans-hydroxytamoxifen, reference compound]
proliferation of tamoxifen-resistant MCF7 cells [4]: weakly stimulated

c1cc(C(=C2C3CC4CC(C3)CC2C4)c2ccc(OCCCCCCN3CCCCCC3)cc2)ccc1OCCCCCCN1CCCCCC1 [NB-72]
AUC ([1]; oral, 60 mg/kg): 11.3 µM·h
Cmax ([1]; oral, 60 mg/kg): 320 nM
half-life ([1]; oral, 60 mg/kg): 60.6 h
AUC ([1]; sc, 60 mg/kg): 15.9 µM·h
Cmax ([1]; sc, 60 mg/kg): 370 nM
half-life ([1]; sc, 60 mg/kg): 302 h

C[N+]1(CCCCCCOc2ccc(C(c3ccc(Cl)cc3)=C3C4C[C@H]5C[C@@H](C4)C[C@H]3C5)cc2)CCCC1 [NB-63]
relative potency in suppressing cell proliferation [5]: potencies very similar to those of their parent amine compounds
tumor growth in vivo [3]: greatly suppress tumor growth
animal body weight [3]: little impact on animal body weight
growth of tumor xenografts [3]: effective in suppressing the growth of tumor xenografts
blood levels of compound ([1]; after oral administration): only very low levels
blood levels of compound ([1]; after s.c. injection): very high blood levels
AUC ([1]; oral, 40 mg/kg): 1.67 µM·h
Cmax ([1]; oral, 40 mg/kg): 400 nM
half-life ([1]; oral, 40 mg/kg): 5.8 h
AUC ([1]; sc, 40 mg/kg): 158 µM·h
Cmax ([1]; sc, 40 mg/kg): 5010 nM
half-life ([1]; sc, 40 mg/kg): 31.5 h

C[N+]1(CCCCCCOc2ccc(C(=C3C4CC5CC(C4)CC3C5)c3ccc(OCCCCCC[N+]4(C)CCCC4)cc3)cc2)CCCC1 [NB-68]
relative potency in suppressing cell proliferation [5]: potencies very similar to those of their parent amine compounds
Ki (FOXM1): 51 nM
tumor growth [3]: greatly suppress tumor growth
tumor growth in vivo [3]: greatly suppress tumor growth
blood levels of compound ([1]; after oral administration): only very low levels
blood levels of compound ([1]; after s.c. injection): very high blood levels
AUC ([1]; oral, 60 mg/kg): 0.29 µM·h
Cmax ([1]; oral, 60 mg/kg): 71 nM
half-life ([1]; oral, 60 mg/kg): 6.2 h
AUC ([1]; sc, 60 mg/kg): 127 µM·h
Cmax ([1]; sc, 60 mg/kg): 7120 nM
half-life ([1]; sc, 60 mg/kg): 23.7 h

c1cc(C(=C2C3CC4CC(C3)CC2C4)c2ccc(OCCCCCCN3CCCC3)cc2)ccc1OCCCCCCN1CCCC1 [NB-65]
Ki (FOXM1): 190 nM
AUC ([1]; oral, 60 mg/kg): 3.23 µM·h
Cmax ([1]; oral, 60 mg/kg): 80 nM
AUC ([1]; sc, 60 mg/kg): 14.8 µM·h
Cmax ([1]; sc, 60 mg/kg): 580 nM
